For eight compounds, Ki, ED50 and ID50 results are on record in patent US8476253B2, “Amide derivative” (Daiichi Sankyo Company, Limited, priority 2009, dated 2013).

The structures appear in SMILES notation. Counter-ions that a name gives are not always drawn. Like-named read-outs stand apart in the source and are kept apart here.

For orientation: Ki means the dissociation constant of the complex between target and ligand, obtained from inhibition or displacement.

One test deals with T1, substance P receptor (Cavia porcellus, UniProt P30547).
T1 construct: A preparation of a crude lung membrane sample was prepared; from tissue; host or cells: guinea-pig lung (crude membrane sample)
Description: Test for binding to guinea-pig substance P receptor (crude lung membrane sample). Conditions: crude guinea-pig lung membrane sample, [3H]substance P; Ki from IC50 and Kd; read-out: Ki. As for the experimental part:
A preparation of a crude lung membrane sample was prepared, and a test for binding of a test substance to the sample was performed according to the method described in EP0336230A2.
The binding effect of the test substance to a substance P receptor was calculated as an affinity (Ki) of the test substance for the substance P receptor from a 50% binding concentration (IC50) and an affinity (Kd) of [^3H]substance P for the substance P receptor.

In another test the target is T2, human M3 receptor (Homo sapiens, UniProt P20309).
T2 construct: expressed in transfected cells; host or cells: CHO cells
Put plainly: Test for binding to human M3 receptor. Put shortly:
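CHO-cell crude membranes expressing human M3 were incubated with [N-methyl-3H]-(−)-scopolamine methyl chloride in 50 mM Tris-HCl, 0.5 mM EDTA, pH 7.4, for 60 min at room temperature. Bound ligand was collected on PEI-pretreated glass-fibre filters and counted by liquid scintillation. Ki was calculated from IC50 and the radioligand Kd.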

Another test deals with T3, neurokinin NK1 receptor (Cavia porcellus, UniProt P30547).
T3 construct: Using healthy guinea pigs (body weight, 350 to 550 g; Hartley male guinea pigs); from tissue; host or cells: live anaesthetised Hartley male guinea pigs (airway, in vivo)
Description: Effect of suppressing substance P-induced airway contraction (in vivo, intratracheal administration). The following applies: guinea pigs, intratracheal administration 60 minutes before 20 μg/kg i.v. SP, AUC of increase in airway pressure over 10 minutes; for ED50: guinea pig, read-out: ID50 (the source's name). Details: species or system guinea pig. Put shortly: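 Anaesthetised, gallamine-paralysed, ventilated male Hartley guinea pigs; compound in 5% glucose given intratracheally 60 min before 20 μg/kg i.v. substance P. Airway-pressure increase AUC over 10 min, inhibition versus vehicle group, expressed as ID50.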

Another test has as its target T4, human NK2 receptor (Homo sapiens, UniProt P21452).
T4 construct: expressed in transfected cells; host or cells: COS cells
T4 sequence (P21452 1-398): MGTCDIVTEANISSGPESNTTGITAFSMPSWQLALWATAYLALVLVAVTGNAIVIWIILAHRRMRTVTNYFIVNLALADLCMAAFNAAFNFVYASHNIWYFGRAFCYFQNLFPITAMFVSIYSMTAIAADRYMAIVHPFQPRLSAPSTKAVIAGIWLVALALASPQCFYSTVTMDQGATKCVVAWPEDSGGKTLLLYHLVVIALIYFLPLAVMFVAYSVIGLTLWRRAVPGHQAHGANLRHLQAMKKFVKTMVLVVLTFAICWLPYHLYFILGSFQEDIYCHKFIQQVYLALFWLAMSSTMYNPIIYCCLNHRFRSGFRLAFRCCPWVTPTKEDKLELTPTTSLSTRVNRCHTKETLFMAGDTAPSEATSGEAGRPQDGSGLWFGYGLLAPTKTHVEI
Description: Test for binding to human NK2 receptor. The method, boiled down: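 Radioligand binding with [^3H]SR 48968 on cryopreserved COS cells expressing human NK2 receptor (5.0×10^5 cells/mL), in 50 mM Tris-HCl pH 7.4 with BSA, MnCl2 and protease inhibitors. Bound label collected on PEI-treated GF/B filters, counted by liquid scintillation; Ki derived from IC50 and radioligand Kd.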

Where [1] appears, read: CHO cells expressing human M3 receptor, [N-methyl-3H]-(-)-Scopolamine methyl chloride 0.5 nM, Ki from IC50 and Kd, read-out: Ki.
Where [2] appears, read: COS cells expressing human NK2 receptor, [3H]SR 48968 1 nM, Ki from IC50 and Kd, read-out: Ki.

T1 sequence (P30547 whole entry): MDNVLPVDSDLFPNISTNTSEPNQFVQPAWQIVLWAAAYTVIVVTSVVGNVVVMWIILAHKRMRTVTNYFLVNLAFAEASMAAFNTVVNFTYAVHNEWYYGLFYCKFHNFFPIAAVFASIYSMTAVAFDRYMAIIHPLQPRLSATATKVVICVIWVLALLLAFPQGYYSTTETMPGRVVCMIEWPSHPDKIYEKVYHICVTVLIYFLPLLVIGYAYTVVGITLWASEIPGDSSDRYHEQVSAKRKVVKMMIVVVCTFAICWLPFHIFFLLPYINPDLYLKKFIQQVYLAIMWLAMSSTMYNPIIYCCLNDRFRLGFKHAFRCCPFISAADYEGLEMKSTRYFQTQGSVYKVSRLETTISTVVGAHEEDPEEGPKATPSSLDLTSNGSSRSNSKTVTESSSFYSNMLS
T3 sequence (P30547 whole entry): as above
T2 sequence (P20309 whole entry): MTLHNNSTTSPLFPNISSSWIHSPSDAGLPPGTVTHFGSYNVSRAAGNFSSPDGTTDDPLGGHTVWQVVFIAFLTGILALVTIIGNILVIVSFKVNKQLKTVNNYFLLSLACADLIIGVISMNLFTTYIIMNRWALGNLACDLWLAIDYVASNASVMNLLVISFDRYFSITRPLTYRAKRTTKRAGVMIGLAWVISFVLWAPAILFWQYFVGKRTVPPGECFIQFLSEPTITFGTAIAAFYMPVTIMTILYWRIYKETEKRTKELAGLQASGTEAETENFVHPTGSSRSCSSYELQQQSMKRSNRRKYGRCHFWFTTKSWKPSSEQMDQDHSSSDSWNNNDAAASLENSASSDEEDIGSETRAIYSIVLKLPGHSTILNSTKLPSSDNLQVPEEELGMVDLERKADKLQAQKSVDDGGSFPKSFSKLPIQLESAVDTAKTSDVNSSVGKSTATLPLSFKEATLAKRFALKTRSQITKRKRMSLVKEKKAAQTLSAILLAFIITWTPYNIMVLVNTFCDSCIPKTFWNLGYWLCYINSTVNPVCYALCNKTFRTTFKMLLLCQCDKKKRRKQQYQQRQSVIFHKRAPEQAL

Take `CN(CCN1CCC(OC(=O)Nc2ccccc2-c2ccccc2)CC1)C(=O)CCCCCNc1ncc(C(=O)N(C)CCCN(C)C(=O)CO[C@H]2Cc3ccccc3C23CCN(CC[C@@]2(c4ccc(F)cc4)CN(C(=O)c4cc(C(F)(F)F)cc(C(F)(F)F)c4)CO2)CC3)cn1` [Example 14, 1-(2-{[6-({5-[{3-[({[(2S)-1′-{2-[(5R)-3-[3,5-Bis(trifluoromethyl)benzoyl]-5-(4-fluorophenyl)-1,3-oxazolidin-5-yl]ethyl}-2,3-dihydrospiro[indene-1,4′-piperidin]-2-yl]oxy}acetyl)(methyl)amino]propyl}(methyl)carbamoyl]pyrimidin-2-yl}amino)hexanoyl](methyl)amino}ethyl)piperidin-4-yl biphenyl-2-ylcarbamate trihydrochloride]: the Ki was determined as 1.9 nM at substance P receptor, 0.93 nM at human M3 receptor and 0.67 nM at human NK2 receptor. Moreover, on neurokinin NK1 receptor, the ED50 came out at 0.0172 mg/kg.
`CN(CCN1CCC(OC(=O)Nc2ccccc2-c2ccccc2)CC1)C(=O)CCOCCNc1ccc(C(=O)N(C)CCCN(C)C(=O)CO[C@H]2Cc3ccccc3C23CCN(CC[C@@]2(c4ccc(F)cc4)CN(C(=O)c4cc(C(F)(F)F)cc(C(F)(F)F)c4)CO2)CC3)cc1` [Example 29, 1-{2-[{3-[2-({4-[{3-[({[(2S)-1′-{2-[(5R)-3-[3,5-Bis(trifluoromethyl)benzoyl]-5-(4-fluorophenyl)-1,3-oxazolidin-5-yl]ethyl}-2,3-dihydrospiro[indene-1,4′-piperidin]-2-yl]oxy}acetyl)(methy)amino]propyl}(methyl)carbamoyl]phenyl}amino)ethoxy]propanoyl}(methyl)amino]ethyl}piperidin-4-yl biphenyl-2-ylcarbamate trihydrochloride]: the figures for the Ki on substance P receptor, on human M3 receptor (setting [1]) and on human NK2 receptor (setting [2]) were 1.4 nM, 1.7 nM and 0.76 nM, respectively. For the same compound, the ED50 on neurokinin NK1 receptor was found to be 0.0292 mg/kg.
Turning to `CN(CCN1CCC(OC(=O)Nc2ccccc2-c2ccccc2)CC1)C(=O)CCCN(C)c1ccc(C(=O)N(C)CCCN(C)C(=O)CO[C@H]2Cc3ccccc3C23CCN(CC[C@@]2(c4ccc(F)cc4)CN(C(=O)c4cc(C(F)(F)F)cc(C(F)(F)F)c4)CO2)CC3)cc1` [Example 36, 1-{2-[{4-[{4-[{3-[({[(2S)-1′-{2-[(5R)-3-[3,5-Bis(trifluoromethyl)benzoyl]-5-(4-fluorophenyl)-1,3-oxazolidin-5-yl]ethyl}-2,3-dihydrospiro[indene-1,4′-piperidin]-2-yl]oxy}acetyl)(methyl)amino]propyl}(methyl)carbamoyl]phenyl}(methyl)amino]butanoyl}(methyl)amino]ethyl}piperidin-4-yl biphenyl-2-ylcarbamate trihydrochloride], the figures for the inhibition constant Ki at substance P receptor, on human M3 receptor and on human NK2 receptor were 1.4 nM, 1.8 nM and 0.96 nM, respectively. The ED50 at neurokinin NK1 receptor came to 0.0236 mg/kg.
In the same order, the values of `CN(CCN1CCC(OC(=O)Nc2ccccc2-c2ccccc2)CC1)C(=O)CCCCNc1ccc(C(=O)N(C)CCCN(C)C(=O)CO[C@H]2Cc3ccccc3C23CCN(CC[C@@]2(c4ccc(F)cc4)CN(C(=O)c4cc(C(F)(F)F)cc(C(F)(F)F)c4)CO2)CC3)cc1` [Example 32, 1-(2-{[5-({4-[{3-[({[(2S)-1′-{2-[(5R)-3-[3,5-Bis(trifluoromethyl)benzoyl]-5-(4-fluorophenyl)-1,3-oxazolidin-5-yl]ethyl}-2,3-dihydrospiro[indene-1,4′-piperidin]-2-yl]oxy}acetyl)(methyl)amino]propyl}(methyl)carbamoyl]phenyl}amino)pentanoyl](methyl)amino}ethyl)piperidin-4-yl biphenyl-2-ylcarbamate trihydrochloride] are 1.3 nM, 1.1 nM, 0.74 nM and 0.0202 mg/kg.
Regarding `CN(CCN1CCC(OC(=O)Nc2ccccc2-c2ccccc2)CC1)C(=O)CCCCCNc1nc2ccc(C(=O)N(C)CCCN(C)C(=O)CO[C@H]3Cc4ccccc4C34CCN(CC[C@@]3(c5ccc(F)cc5)CN(C(=O)c5cc(C(F)(F)F)cc(C(F)(F)F)c5)CO3)CC4)cc2s1` [Example 93, 1-(2-{[6-({6-[{3-[({[(2S)-1′-{2-[(5R)-3-[3,5-Bis(trifluoromethyl)benzoyl]-5-(4-fluorophenyl)-1,3-oxazolidin-5-yl]ethyl}-2,3-dihydrospiro[indene-1,4′-piperidin]-2-yl]oxy}acetyl)(methy)amino]propyl}(methyl)carbamoyl]-1,3-benzothiazol-2-yl}amino)hexanoyl](methyl)amino}ethyl)piperidin-4-yl biphenyl-2-ylcarbamate], the Ki at substance P receptor was found to be 1 nM; on human M3 receptor (setting [1]), 0.6 nM; at human NK2 receptor (setting [2]), 0.55 nM. Besides, on neurokinin NK1 receptor, the ID50 is 0.0416 mg/kg.
As to `Cc1nc(NCCCCCC(=O)N(C)CCN2CCC(OC(=O)Nc3ccccc3-c3ccccc3)CC2)sc1C(=O)N(C)CCCN(C)C(=O)CO[C@H]1Cc2ccccc2C12CCN(CC[C@@]1(c3ccc(F)cc3)CN(C(=O)c3cc(C(F)(F)F)cc(C(F)(F)F)c3)CO1)CC2` [Example 105, 1-(2-{[6-({5-[{3-[({[(2S)-1′-{2-[(5R)-3-[3,5-Bis(trifluoromethyl)benzoyl]-5-(4-fluorophenyl)-1,3-oxazolidin-5-yl]ethyl}-2,3-dihydrospiro[indene-1,4′-piperidin]-2-yl]oxy}acetyl)(methyl)amino]propyl}(methyl)carbamoyl]-4-methyl-1,3-thiazol-2-yl}amino)hexanoyl](methyl)amino}ethyl)piperidin-4-yl biphenyl-2-ylcarbamate trihydrochloride], the results for the Ki at substance P receptor, at human M3 receptor and on human NK2 receptor were 2.1 nM, 1.4 nM and 0.85 nM, respectively. Besides, the ED50 on neurokinin NK1 receptor was 0.0273 mg/kg.
With `CN(CCN1CCC(OC(=O)Nc2ccccc2-c2ccccc2)CC1)C(=O)CCCCCNCc1ccc(C(=O)N(C)CCCN(C)C(=O)CO[C@H]2Cc3ccccc3C23CCN(CC[C@@]2(c4ccc(F)cc4)CN(C(=O)c4cc(C(F)(F)F)cc(C(F)(F)F)c4)CO2)CC3)s1` [Example 1, 1-{2-[{6-[({5-[{3-[({[(2S)-1′-{2-[(5R)-3-[3,5-Bis(trifluoromethyl)benzoyl]-5-(4-fluorophenyl)-1,3-oxazolidin-5-yl]ethyl}-2,3-dihydrospiro[indene-1,4′-piperidin]-2-yl]oxy}acetyl)(methyl)amino]propyl}(methyl)carbamoyl]-2-thienyl}methyl)amino]hexanoyl}(methyl)amino]ethyl}piperidin-4-yl biphenyl-2-ylcarbamate], the Ki at substance P receptor stood at 1.5 nM; on human M3 receptor (setting [1]) it was 1.4 nM; on human NK2 receptor (setting [2]) it was 0.57 nM. Moreover, the ED50 at neurokinin NK1 receptor came out at 0.0147 mg/kg.
As to `Cc1cc(NCCCCCC(=O)N(C)CCN2CCC(OC(=O)Nc3ccccc3-c3ccccc3)CC2)ccc1C(=O)N(C)CCCN(C)C(=O)CO[C@H]1Cc2ccccc2C12CCN(CC[C@@]1(c3ccc(F)cc3)CN(C(=O)c3cc(C(F)(F)F)cc(C(F)(F)F)c3)CO1)CC2` [Example 18, 1-(2-{[6-({4-[{3-[({[(2S)-1′-{2-[(5R)-3-[3,5-Bis(trifluoromethyl)benzoyl]-5-(4-fluorophenyl)-1,3-oxazolidin-5-yl]ethyl}-2,3-dihydrospiro[indene-1,4′-piperidin]-2-yl]oxy}acetyl)(methyl)amino]propyl}(methyl)carbamoyl]-3-methylphenyl}amino)hexanoyl](methyl)amino}ethyl)piperidin-4-yl biphenyl-2-ylcarbamate trihydrochloride], the Ki at substance P receptor is 1.8 nM; on human M3 receptor, 1.2 nM; on human NK2 receptor, 0.42 nM. For the same compound, the ED50 on neurokinin NK1 receptor turned out to be 0.0614 mg/kg.
